Test results published in the NIST ThermoML archive (doi:10.1007/s10765-005-5566-6).
± gives the expanded uncertainty stated by the source.

Assay: xn = mol fraction of the nth substance listed
Settings: Gas, Hot wire method

C [methane] + O=C=O
Settings | thermal conductivity [W/m/K]
375 K, 919 kPa, x1 = 0.2493 | 0.02872 ± 0.00051
375 K, 919 kPa, x1 = 0.4994 | 0.03475 ± 0.00061
375 K, 930 kPa, x1 = 0.7496 | 0.04098 ± 0.00071
375 K, 1460 kPa, x1 = 0.2493 | 0.02883 ± 0.00051
375 K, 1528 kPa, x1 = 0.7496 | 0.04104 ± 0.00071
375 K, 1578 kPa, x1 = 0.4994 | 0.0348 ± 0.00061
375 K, 1986 kPa, x1 = 0.2493 | 0.02895 ± 0.00052
375 K, 2135 kPa, x1 = 0.7496 | 0.04117 ± 0.00071
375 K, 2220 kPa, x1 = 0.4994 | 0.03492 ± 0.00061
375 K, 2510 kPa, x1 = 0.2493 | 0.02913 ± 0.00052
375 K, 2740 kPa, x1 = 0.7496 | 0.04129 ± 0.00072
375 K, 2840 kPa, x1 = 0.4994 | 0.0352 ± 0.00062
375 K, 3015 kPa, x1 = 0.2493 | 0.02945 ± 0.00053
375 K, 3310 kPa, x1 = 0.7496 | 0.04145 ± 0.00072
375 K, 3480 kPa, x1 = 0.4994 | 0.03545 ± 0.00062
375 K, 3510 kPa, x1 = 0.2493 | 0.0297 ± 0.00053
375 K, 3915 kPa, x1 = 0.7496 | 0.04181 ± 0.00073
375 K, 4005 kPa, x1 = 0.2493 | 0.02993 ± 0.00054
375 K, 4100 kPa, x1 = 0.4994 | 0.03561 ± 0.00063
375 K, 4490 kPa, x1 = 0.7496 | 0.04204 ± 0.00073
375 K, 4500 kPa, x1 = 0.2493 | 0.0302 ± 0.00054
375 K, 4715 kPa, x1 = 0.4994 | 0.03598 ± 0.00063
375 K, 4975 kPa, x1 = 0.2493 | 0.03051 ± 0.00055
375 K, 5440 kPa, x1 = 0.2493 | 0.03075 ± 0.00055
375 K, 5855 kPa, x1 = 0.4994 | 0.03682 ± 0.00065
375 K, 6910 kPa, x1 = 0.7496 | 0.04355 ± 0.00076
375 K, 6930 kPa, x1 = 0.4994 | 0.03739 ± 0.00066
375 K, 8000 kPa, x1 = 0.4994 | 0.03823 ± 0.00068
375 K, 9330 kPa, x1 = 0.7496 | 0.04538 ± 0.0008
375 K, 11600 kPa, x1 = 0.7496 | 0.04722 ± 0.00083
400 K, 983 kPa, x1 = 0.2493 | 0.03152 ± 0.00056
400 K, 986 kPa, x1 = 0.4994 | 0.03807 ± 0.00066
400 K, 993 kPa, x1 = 0.7496 | 0.04503 ± 0.00077
400 K, 1410 kPa, x1 = 0.2493 | 0.0316 ± 0.00056
400 K, 1690 kPa, x1 = 0.4994 | 0.03812 ± 0.00066
400 K, 1700 kPa, x1 = 0.7496 | 0.04501 ± 0.00077
400 K, 1820 kPa, x1 = 0.2493 | 0.03172 ± 0.00056
400 K, 2230 kPa, x1 = 0.2493 | 0.03183 ± 0.00056
400 K, 2378 kPa, x1 = 0.4994 | 0.03826 ± 0.00067
400 K, 2393 kPa, x1 = 0.7496 | 0.04519 ± 0.00078
400 K, 2635 kPa, x1 = 0.2493 | 0.03187 ± 0.00056
400 K, 3040 kPa, x1 = 0.2493 | 0.03201 ± 0.00057
400 K, 3061 kPa, x1 = 0.4994 | 0.03844 ± 0.00067
400 K, 3115 kPa, x1 = 0.7496 | 0.04526 ± 0.00078
400 K, 3435 kPa, x1 = 0.2493 | 0.03228 ± 0.00057
400 K, 3740 kPa, x1 = 0.4994 | 0.03866 ± 0.00068
400 K, 3770 kPa, x1 = 0.7496 | 0.04535 ± 0.00078
400 K, 3850 kPa, x1 = 0.2493 | 0.03241 ± 0.00057
400 K, 4240 kPa, x1 = 0.2493 | 0.03258 ± 0.00058
400 K, 4390 kPa, x1 = 0.4994 | 0.03887 ± 0.00068
400 K, 4460 kPa, x1 = 0.7496 | 0.04578 ± 0.00079
400 K, 4615 kPa, x1 = 0.2493 | 0.03271 ± 0.00058
400 K, 5060 kPa, x1 = 0.4994 | 0.03918 ± 0.00069
400 K, 5140 kPa, x1 = 0.7496 | 0.04598 ± 0.0008
400 K, 5667 kPa, x1 = 0.4994 | 0.03961 ± 0.00069
400 K, 6180 kPa, x1 = 0.4994 | 0.0398 ± 0.0007
400 K, 6670 kPa, x1 = 0.7496 | 0.04688 ± 0.00082
400 K, 6710 kPa, x1 = 0.4994 | 0.04014 ± 0.00071
400 K, 8110 kPa, x1 = 0.7496 | 0.04756 ± 0.00083
400 K, 9545 kPa, x1 = 0.7496 | 0.04861 ± 0.00085
425 K, 1048 kPa, x1 = 0.2493 | 0.03418 ± 0.0006
425 K, 1050 kPa, x1 = 0.4994 | 0.04164 ± 0.00072
425 K, 1050 kPa, x1 = 0.7496 | 0.04889 ± 0.00083
425 K, 1530 kPa, x1 = 0.2493 | 0.03411 ± 0.0006
425 K, 1799 kPa, x1 = 0.4994 | 0.04146 ± 0.00072
425 K, 1810 kPa, x1 = 0.7496 | 0.04908 ± 0.00084
425 K, 1938 kPa, x1 = 0.2493 | 0.03436 ± 0.0006
425 K, 2390 kPa, x1 = 0.2493 | 0.03434 ± 0.0006
425 K, 2554 kPa, x1 = 0.4994 | 0.04156 ± 0.00072
425 K, 2558 kPa, x1 = 0.7496 | 0.04898 ± 0.00084
425 K, 2810 kPa, x1 = 0.2493 | 0.03448 ± 0.00061
425 K, 3260 kPa, x1 = 0.2493 | 0.03452 ± 0.00061
425 K, 3260 kPa, x1 = 0.4994 | 0.04176 ± 0.00072
425 K, 3300 kPa, x1 = 0.7496 | 0.04919 ± 0.00084
425 K, 3690 kPa, x1 = 0.2493 | 0.03472 ± 0.00061
425 K, 4000 kPa, x1 = 0.4994 | 0.04192 ± 0.00073
425 K, 4050 kPa, x1 = 0.7496 | 0.04919 ± 0.00085
425 K, 4120 kPa, x1 = 0.2493 | 0.0349 ± 0.00062
425 K, 4540 kPa, x1 = 0.2493 | 0.03506 ± 0.00062
425 K, 4730 kPa, x1 = 0.4994 | 0.04207 ± 0.00073
425 K, 4800 kPa, x1 = 0.7496 | 0.0498 ± 0.00086
425 K, 4960 kPa, x1 = 0.2493 | 0.0353 ± 0.00062
425 K, 5460 kPa, x1 = 0.4994 | 0.04245 ± 0.00074
425 K, 5520 kPa, x1 = 0.7496 | 0.05001 ± 0.00086
425 K, 6410 kPa, x1 = 0.4994 | 0.04284 ± 0.00075
425 K, 7380 kPa, x1 = 0.4994 | 0.04335 ± 0.00076
425 K, 7670 kPa, x1 = 0.7496 | 0.05089 ± 0.00088
425 K, 8310 kPa, x1 = 0.4994 | 0.04385 ± 0.00077
425 K, 9820 kPa, x1 = 0.7496 | 0.05188 ± 0.00091
425 K, 11970 kPa, x1 = 0.7496 | 0.05348 ± 0.00094
